Source: patent EP0265388A1, “Pyrrole derivatives, therapeutic compositions containing them and their use” (CIBA-GEIGY AG, priority 1986, dated 1988)
One block for each compound: values may come before it.

Columns and labels:
[1] = Social conflict test after Jaekel (rank hierarchy); format: in vivo, Rhesusaffen
Description: Insbesondere konnten signifikante anxiolytische Effekte bei Verabreichung des Wirkstoffs in sozialen Konfliktsituationen bei Rhesusaffen festgestellt werden. Die experimentalle Grundlage für diesen Sozialkonflikt-Test analog J. Jaekel in Biologische Psychiatrie (Forschungsergebnisse), W. Kemp (Hrsg.), Springer Verlag, Heidelberg, 1986, ist die hierarchische Rangordnung bei Rhesusaffen. Der relative Rangstatus eines Tieres ist der bestimmende Faktor für interindividuelle Kommunikation, z.B. für Aggression oder wechselseitiges soziales Putzen. Normalerweise werden Tiere mit geringem Rangstatus von höher gestellten Grupenmitgliedern unterdrückt. Diese unterdrückten Tiere ziehen sich in eine soziale Isolierung zurück und vermeiden ängstlich jeden Sozialkontakt. Wiederholte Wirkstoffgaben in Dosen von 0,2 mg/kg p.o. bei Gruppen von 5 bzw. […] Diese Effekte werden als deutliche Anxiolyse angesehen.
Insbesondere konnten signifikante anxiolytische Effekte bei Verabreichung des Wirkstoffs in sozialen Konfliktsituationen bei Rhesusaffen im oben beschriebenen Sozialkonflikt-Test nach Jaekel festgestellt werden. […] Ebenso nahmen sie aktiv Kontakt auf und wurden zu Partnern beim Pflegen, obwohl sie vorher niemals Pflegepartner waren. Diese Effekte wurden sowohl bei Gruppen mit hohem Niveau an Sozialkontakten als auch bei Gruppen mit wenig Pflegepartnerschaften beobachtet. […] Wie zu erwarten wurde dieses ausgeprägte anxiolytische Profil bei den Standard-Beta-Rezeptoren-Blockern Oxprenolol nicht und bei Propanolol in weitaus geringerem Masse erst bei Beta-Rezeptoren blockierenden Dosierungen festgestellt. Dagegen weist das Racemat diesen Effekt in nicht ß-blockierend wirkenden Dosierungen auf.

[2] = system: präsynaptischen Serotonin-1 B-Rezeptors (5-HTIB); experiment: Antagonism at the presynaptic serotonin 1B receptor; settings: for Selektivität (5-HT1B gegenüber 5-HT1A): compared with the racemate
[3] = Complicated deep maze after Watson; format: in vivo, Ratten
Description: (§1) In Testmodellen an Rhesusaffen sowie an Ratten konnten weiterhin eine zusätzliche nootrope und antidepressive Wirkungskomponente festgestellt werden. So bewirkte (+)-1-isopropylamino-3-[o-(pyrrol-1-yl)-phenoxy]-2-propanol in einer Doppelblindstudie bei Rhesusaffen gegen Placebo im "Delayed-Matchingto-Sample-Test" (Zeit-verzögerte-Wahl-nach-Muster) gemäss der Methodik von H. F. Harlow et al., J. Comp. Physiol. Psychol. […] Dieser bedeutet diejenige Zeitverzögerung in Sekunden, nach der ein Affe einen Diskriminationserfolg von < 75 % hat. Weiterhin konnten die Vorzögerungszeiten für den Defizitbereich um durchschnittlich 20 Sekunden erhöht werden. Neben diesen nootropen Effekten konnten In diesem Test auch antidepressive Eigenschaften beobachtet werden. […] Die nootrope bzw. antidepressive Wirkungskomponente konnten ebenfalls bei Untersuchungen mit Ratten manifestiert werden. So wurden in einem komplizierten Tieflabyrinth analog dem Modell von J.B. Watson, Animal Education, Contrib. Psychol. Lab. Univ.

[4] = Three-centre double-blind study in inpatients; format: in vivo, Menschen
Description: Ueberraschend ist also die Tatsache, dass das anxiolytische Profil dieses Wirkstoffs auch bei nicht-betarezeptorenblockierend wirkenden Dosierungen sowohl im Tiermodell als auch am Menschen überaus ausgeprägt ist. Letzteres bestätigen Untersuchungen an stationären Patienten.
Entsprechendes ist bei der Verwendung des (+)-Enantiomeren zu erwarten.

[5] = Delayed-Matching-to-Sample test after Harlow, double-blind against placebo; format: in vivo, Rhesusaffen
Description: as §1, with “So bewirkte (+)-1-isopropylamino-3-[o-(pyrrol-1-yl)-phenoxy]-2-propanol in einer Doppelblindstudie bei Rhesusaffen gegen Placebo im "Delayed-Matchingto-Sample-Test" (Zeit-verzögerte-Wahl-nach-Muster) gemäss der Methodik von H.” left out

[6] = Inhibition of hyperactivity of rats kept in isolation (locomotor and exploratory behaviour, after Weinstock); format: in vivo, Ratten; settings: isolated rats
Description: Das charakterische anxiolytische Profil von 1-Isopropylamino-3-[o-(pyrrol-1-yl)-phenoxyj-2-propanol ergibt sich beispielsweise aus der Hemmung der Hyperaktivität von Ratten, die in Isolation gehalten werden, gemessen an ihrem lokomotorischen und exploratorischen Verhalten, wobei maximale Effekte bei einer Dosierung von 0,01-0,1 mg/kg p.o. erzielt werden [analog der Methodik von R. Weinstock et al., Psychopharmacologia 30, 241ff. (1973). Die Hyperaktivität von isoliert gehaltenen Ratten konnte dagegen im Falle des Propranolols erste bei einer Dosis von 0,3 mg/kg p.o. maximal gehemmt werden.

[7] = Geller test (foot-shock induced conflict, lever pressing for food); format: in vivo, Ratten; settings: for anxiolytische Wirkung im Geller-Test: overall assessment
Description: Das charakteristische anxiolytische Profil von (+)-1-Isopropylamino-3-[o-(pyrrol-1-yl)-phenoxy]-2-propanol ergibt sich beispielsweise aus den Ergebnissen des Geller-Testes, [J. Geller. Psychopharmacologia, 3, S. 374 ff. […] Bei diesem Test werden die Füsse der Verscuchstiere beim Bedienen eines Hebels zur Nahrungsfreigabe periodisch Elektroschocks ausgesetzt. Normalerweise wird nur bei Verabreichung von hohen Dosen an Anxiolytika die Reaktion auf die Bestrafung unterdrückt. Bei einer Gruppe von Ratten, die eine Dosis ab 3 mg/kg p.o. von (+)-1-lsopropylamino-3-[o-(pyrrol-1-yl)-phenoxy]-2-propanol erhalten haben, reagieren bereits ab etwa 80 % der Versuchstiere mit einem markanten Anstieg der Hebelbedienungshäufigkeit während der Schockphase.
Bei einer Gruppe von 29 Ratten, die eine Dosis von 20 mg/kg p.o. von 1-lsopropylamino-3-[o-(pyrrol-1-yl)-phenoxy]-2-propanol erhalten haben, reagieren bereits 50 % der Versuchstiere mit einem markanten Anstieg der Hebelbedienungshäufigkeit während der Schockphase, wobei der Anstieg bei einzelnen Tieren 300 % betrug.

[8] = system: stratialer Dopamin-Rezeptoren; experiment: In vivo 3H-spiperone binding screening model after Bischoff; set-up: species or system Ratten; settings: rats
Description: Ferner bewirkt (+)-1-Isopropylamino-3-[o-(pyrrol-1-yl)-phenoxy]-2-propanol an Ratten Im Screening-Modell nach S. Bischoff et al., Europ.

[9] = repeated doses of 0,1-0,3 mg/kg p.o., groups of 7 monkeys
[10] = repeated doses of 0,2 mg/kg p.o., groups of 5 or 7 monkeys

SMILES: CC(C)NCC(O)COc1ccccc1-n1cccc1 (racemic) [1-Isopropylamino-3-[o-(pyrrol-1-yl)-phenoxy]-2-propanol]
Sozialkontakte der rangniedrigsten Affen [1, 9]: Zunahme der Sozialkontakte
ängstliches Verhaltensmuster der Affen, die in der Rangordnung am niedrigsten eingeordnet sind [1, 9]: signifikanten Reduktion des ängstlichen Verhaltensmuster
Antagonismus am präsynaptischen Serotonin-1 B-Rezeptor [2]: potenter selektiver Antagonist
nootrope und antidepressive Eigenschaften ([3]; racemate, at the doses used): keine aussagefähigen Beobachtungen
cardiovaskuläre Effekte (ß-Blockade) ([4]; humans, low daily doses such as 2 mg and 4 mg p.o.): keine cardiovaskulären Effekte
anxiolytische Effekte ([4]; more than 100 inpatients, daily dose 2 mg p.o. compared with daily dose 4 mg p.o.): signifikante, mindestens ebenso potente anxiolytische Effekte
nootrope und antidepressive Eigenschaften ([5]; racemate, at the doses used): keine aussagefähigen Beobachtungen
Dosierung, bei der maximale Effekte (Hemmung der Hyperaktivität) erzielt werden [6]: 0,01-0,1 mg/kg p.o.
Versuchstiere mit einem markanten Anstieg der Hebelbedienungshäufigkeit während der Schockphase ([7]; group of 29 rats, 20 mg/kg p.o.): 50%
Anstieg der Hebelbedienungshäufigkeit bei einzelnen Tieren ([7]; rats, 20 mg/kg p.o., shock phase): 300%
anxiolytische Wirkung im Geller-Test ([7]; rats): starkes Anxiolytikum

SMILES: CC(C)NCC(O)COc1ccccc1-n1cccc1 (single isomer, unassigned; (+)) [(+)-1-Isopropylamino-3-[o-(pyrrol-1-yl)-phenoxy]-2-propanol]
Sozialkontakte der rangniedrigsten Affen [1, 10]: nahmen sie aktiv soziale Kontakte auf
ängstliches Verhaltensmuster der Affen, die in der Rangordnung am niedrigsten eingeordnet sind [1, 10]: signifikanten Reduktion
^3H-Splperon-Bindung stratialer Dopamin-Rezeptoren [8]: dosisabhängig Erhöhungen
Orientierungsleistungen (Fehlerquote; nootrope Wirkung) ([3]; rats): deutliche Verbesserung der Orientierungsleistungen
Laufzeiten vom Start zum belohnten Ziel ([3]; rats, compared with placebo animals): signifikant verkürzten Laufzeiten
cardiovaskuläre Effekte (ß-Blockade) ([4]; expected for the (+)-enantiomer, not tested): Entsprechendes
Erfolgsrate im Defizitbereich ([5]; 1 mg/kg p.o., against placebo, deficit range = delay after which discrimination success is < 75 %): signifikant erhöhte Erfolgsrate
Motivation und Antrieb (antidepressive Eigenschaften) ([5]; rhesus monkeys): deutliche Motivations-und Antriebssteigerungen
Erhöhung der Vorzögerungszeiten für den Defizitbereich ([5]; rhesus monkeys, average increase): 20 Sekunden
Versuchstiere mit einem markanten Anstieg der Hebelbedienungshäufigkeit während der Schockphase ([7]; rats, dose from 3 mg/kg p.o.): ~80%
anxiolytische Wirkung im Geller-Test ([7]; rats): starkes Anxiolytikum

Selektivität (5-HT1B gegenüber 5-HT1A) [2]: weniger selektiv
SMILES: C=CCOc1ccccc1OCC(O)CNC(C)C (stereo not shown) [Oxprenolol, reference compound]
Sozialkontakte von Affen mit geringer Rangordnung ([1]; 0,3-3,0 mg/kg p.o.): keine Steigerung der Sozialkontakte

SMILES: CC(C)NCC(O)COc1cccc2ccccc12 (stereo not shown) [Propranolol, reference compound]
Sozialkontakte der Rhesusaffen mit niedrigem Rangstatus ([1]; 0,5-10,0 mg/kg p.o.): relativ wenig beeinflusst
Selektivität (5-HT1B gegenüber 5-HT1A) [2]: weniger selektiv
Dosierung, bei der maximale Effekte (Hemmung der Hyperaktivität) erzielt werden [6]: 0,3 mg/kg p.o.
Verhaltensänderung im Fussschocktest ([7]; rats, 20 mg/kg p.o.): keiner signifikanten Verhaltensänderung
